Several values for one entry are separate records, joined by “and”; a condition that tells them apart may be missing. Identical values can stand only once. Inconclusive results and toxic doses are left out. No stated cut-off is given here; in the data, active means T/C of 150% or more; inactive means T/C below 125%.
Test system: L1210 leukemia ip in BDF1 mice, survival T/C
Experiment: NCI In Vivo Anticancer Drug Screen. Data for tumor model L1210 Leukemia (intraperitoneal) in B6D2F1 (BDF1) mice
Settings: endpoint: mean survival time, higher = longer survival
Procedure, shortened: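 Ratio derived from survival: compound-dosed mice over vehicle-dosed mice, all bearing a transplantable tumor.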

[1] = dose: 100.0 mg/kg/injection, schedule: Q04DX002 (ip), vehicle: saline
[2] = dose: 200.0 mg/kg/injection, schedule: Q04DX002 (ip), vehicle: saline
[3] = dose: 100.0 mg/kg/injection, schedule: Q01DX001 (ip), vehicle: saline
[4] = dose: 200.0 mg/kg/injection, schedule: Q01DX001 (ip), vehicle: saline
[5] = dose: 400.0 mg/kg/injection, schedule: Q01DX001 (ip), vehicle: saline
[6] = dose: 400.0 mg/kg/injection, schedule: Q04DX002 (ip), vehicle: saline
[7] = dose: 25.0 mg/kg/injection, schedule: Q04DX003 (ip), vehicle: saline
[8] = dose: 50.0 mg/kg/injection, schedule: Q04DX003 (ip), vehicle: saline

Measured: T/C

CCN(CC)Cc1ccc([N+](=O)[O-])cc1
inactive: [1] 110 % of control | [2] 104 % of control

ClC(Cl)=C(c1ccc(Cl)cc1)c1ccc(Cl)cc1
inactive: [3] 101 % of control | dose: 100.0 mg/kg/injection, schedule: Q04DX002 (ip), vehicle: gum acacia 114 % of control | [4] 110 % of control | dose: 200.0 mg/kg/injection, schedule: Q04DX002 (ip), vehicle: gum acacia 91 % of control | [5] 98 % of control | dose: 400.0 mg/kg/injection, schedule: Q04DX002 (ip), vehicle: gum acacia 100 % of control

CC(OC(=O)Nc1ccc(S(=O)(=O)NC2CCCCC2)cc1)(c1ccccc1)C1CCCCC1 (stereo unspecified)
inactive: [3] 105 % of control | [4] 105 % of control | [5] 100 % of control

CCCCN(C(=O)C(F)(F)F)C(C)(C)C(SSSC(c1cccs1)C(C)(C)N(CCCC)C(=O)C(F)(F)F)c1cccs1 (stereo unspecified)
inactive: dose: 100.0 mg/kg/injection, schedule: Q01DX009 (ip), vehicle: saline sonified 94 % of control | dose: 100.0 mg/kg/injection, schedule: Q04DX003 (ip), vehicle: saline sonified 90 % of control | dose: 200.0 mg/kg/injection, schedule: Q01DX009 (ip), vehicle: saline sonified 96 % of control | dose: 200.0 mg/kg/injection, schedule: Q04DX003 (ip), vehicle: saline sonified 93 % of control | dose: 400.0 mg/kg/injection, schedule: Q04DX003 (ip), vehicle: saline sonified 90 % of control

COc1ccc(COC(=O)Oc2ccc(C)cc2)cc1
inactive: [1] 113 % of control | [2] 109 % of control | [6] 98 % of control

CCN(CC)CCSc1nc2ccccc2[nH]1
inactive: dose: 55.0 mg/kg/injection, schedule: Q01DX Z (ip), vehicle: saline 104 % of control | dose: 83.0 mg/kg/injection, schedule: Q01DX Z (ip), vehicle: saline 91 % of control | dose: 125.0 mg/kg/injection, schedule: Q01DX Z (ip), vehicle: saline 94 % of control

CN1CC2C(N)N=C(N)NC2C1(C)C (stereo unspecified)
inactive: [1] 101 % of control | [2] 93 % of control | [6] 90 % of control

CC(=O)Nc1ccc(C)cc1
inactive: dose: 100.0 mg/kg/injection, schedule: Q01DX001 (ip), vehicle: Klucel (hydroxypropylcellulose) (HPC) 94 % of control | dose: 200.0 mg/kg/injection, schedule: Q01DX001 (ip), vehicle: Klucel (hydroxypropylcellulose) (HPC) 102 % of control | dose: 400.0 mg/kg/injection, schedule: Q01DX001 (ip), vehicle: Klucel (hydroxypropylcellulose) (HPC) 91 % of control

CCCCCCCCCCCCNC(=O)c1cc[n+](C)cc1
inactive: dose: 12.5 mg/kg/injection, schedule: Q04DX003 (ip), vehicle: saline 103 % of control and 88 % of control and 93 % of control | [7] 99 % of control and 87 % of control and 91 % of control | [8] 93 % of control and 91 % of control and 88 % of control

CCOC(=O)NN(C(=O)OCC)C1COCCO1 (stereo unspecified)
inactive: dose: 50.0 mg/kg/injection, schedule: Q04DX002 (ip), vehicle: saline 98 % of control | [1] 103 % of control | [2] 103 % of control

O=C1C=CC(=O)N1c1ccc(N2C(=O)C=CC2=O)cc1
inactive: [7] 110 % of control | [8] 107 % of control | dose: 100.0 mg/kg/injection, schedule: Q04DX003 (ip), vehicle: saline 100 % of control

CC(C)N(C(=O)Nc1cc(C(F)(F)F)ccc1Cl)C1CCCCC1
inactive: dose: 100.0 mg/kg/injection, schedule: Q01DX001 (ip), vehicle: carboxymethylcellulose (CMC) 95 % of control | dose: 100.0 mg/kg/injection, schedule: Q01DX009 (ip), vehicle: carboxymethylcellulose (CMC) 92 % of control and 88 % of control | dose: 100.0 mg/kg/injection, schedule: Q04DX002 (ip), vehicle: carboxymethylcellulose (CMC) 97 % of control | dose: 100.0 mg/kg/injection, schedule: Q04DX003 (ip), vehicle: carboxymethylcellulose (CMC) 96 % of control | dose: 200.0 mg/kg/injection, schedule: Q01DX001 (ip), vehicle: carboxymethylcellulose (CMC) 90 % of control | dose: 200.0 mg/kg/injection, schedule: Q01DX009 (ip), vehicle: carboxymethylcellulose (CMC) 93 % of control and 100 % of control | dose: 200.0 mg/kg/injection, schedule: Q04DX002 (ip), vehicle: carboxymethylcellulose (CMC) 98 % of control and 108 % of control | dose: 200.0 mg/kg/injection, schedule: Q04DX003 (ip), vehicle: carboxymethylcellulose (CMC) 96 % of control | dose: 400.0 mg/kg/injection, schedule: Q01DX001 (ip), vehicle: carboxymethylcellulose (CMC) 93 % of control | dose: 400.0 mg/kg/injection, schedule: Q01DX009 (ip), vehicle: carboxymethylcellulose (CMC) 95 % of control | dose: 400.0 mg/kg/injection, schedule: Q04DX002 (ip), vehicle: carboxymethylcellulose (CMC) 87 % of control and 90 % of control | dose: 400.0 mg/kg/injection, schedule: Q04DX003 (ip), vehicle: carboxymethylcellulose (CMC) 91 % of control

CC(C)OC(=O)Nc1ccc(C(F)(F)F)cc1
inactive: dose: 100.0 mg/kg/injection, schedule: Q04DX002 (ip), vehicle: Klucel (hydroxypropylcellulose) (HPC) 97 % of control and 100 % of control | dose: 200.0 mg/kg/injection, schedule: Q04DX002 (ip), vehicle: Klucel (hydroxypropylcellulose) (HPC) 88 % of control | dose: 400.0 mg/kg/injection, schedule: Q04DX002 (ip), vehicle: Klucel (hydroxypropylcellulose) (HPC) 103 % of control and 112 % of control

O=C(Nc1cccc(C2=NCCN2)c1)c1ccc2ccc(C(=O)Nc3cccc(C4=NCCN4)c3)cc2c1
inactive: dose: 15.0 mg/kg/injection, schedule: Q01DX Z (ip), vehicle: carboxymethylcellulose (CMC) 111 % of control | dose: 30.0 mg/kg/injection, schedule: Q01DX Z (ip), vehicle: carboxymethylcellulose (CMC) 102 % of control | dose: 60.0 mg/kg/injection, schedule: Q01DX Z (ip), vehicle: carboxymethylcellulose (CMC) 106 % of control | dose: 120.0 mg/kg/injection, schedule: Q01DX Z (ip), vehicle: carboxymethylcellulose (CMC) 113 % of control | dose: 125.0 mg/kg/injection, schedule: Q01DX Z (ip), vehicle: water 118 % of control

CC(C)=CC(=O)OC(=O)C=C(C)C
inactive: dose: 100.0 mg/kg/injection, schedule: Q01DX009 (ip), vehicle: other 105 % of control | dose: 100.0 mg/kg/injection, schedule: Q04DX003 (ip), vehicle: saline with Tween-80 98 % of control | dose: 200.0 mg/kg/injection, schedule: Q01DX009 (ip), vehicle: other 88 % of control | dose: 200.0 mg/kg/injection, schedule: Q04DX003 (ip), vehicle: saline with Tween-80 96 % of control | dose: 400.0 mg/kg/injection, schedule: Q01DX009 (ip), vehicle: other 91 % of control | dose: 400.0 mg/kg/injection, schedule: Q04DX003 (ip), vehicle: saline with Tween-80 89 % of control

Cc1oc2ccc(O)c(N=Nc3ccc(Cl)cc3)c2c1C
inactive: dose: 100.0 mg/kg/injection, schedule: Q04DX003 (ip), vehicle: Klucel (hydroxypropylcellulose) (HPC) 100 % of control | dose: 200.0 mg/kg/injection, schedule: Q04DX003 (ip), vehicle: Klucel (hydroxypropylcellulose) (HPC) 90 % of control | dose: 400.0 mg/kg/injection, schedule: Q04DX003 (ip), vehicle: Klucel (hydroxypropylcellulose) (HPC) 95 % of control

CC12CC3CC(C)(C1)CC(SCCN)(C3)C2
inactive: [1] 97 % of control | [2] 97 % of control

CCCCCP(=O)(CCCCC)CCCCC
inactive: dose: 25.0 mg/kg/injection, schedule: Q04DX002 (ip), vehicle: saline with Tween-80 100 % of control | dose: 50.0 mg/kg/injection, schedule: Q04DX002 (ip), vehicle: saline with Tween-80 94 % of control | dose: 100.0 mg/kg/injection, schedule: Q04DX002 (ip), vehicle: saline with Tween-80 98 % of control and 106 % of control

CCOC(=O)CCCCCC(C)=O
inactive: dose: 100.0 mg/kg/injection, schedule: Q04DX003 (ip), vehicle: acetone 103 % of control | dose: 200.0 mg/kg/injection, schedule: Q04DX003 (ip), vehicle: acetone 100 % of control | dose: 400.0 mg/kg/injection, schedule: Q04DX003 (ip), vehicle: acetone 95 % of control

N=c1c2cnn(C3OC(CO)C(O)C3O)c2ncn1N (stereo unspecified)
inactive: dose: 6.25 mg/kg/injection, schedule: Q01DX009 (ip), vehicle: water 112 % of control | dose: 12.5 mg/kg/injection, schedule: Q01DX009 (ip), vehicle: water 121 % of control

Reference: PubChem BioAssay AID248 (DTP/NCI, 2004)
